From patent publication US9695155B2, “Herbicidal substituted pyrimidinyloxy benzene compounds” (E. I. DU PONT DE NEMOURS AND COMPANY, priority 2013, dated 2017)

Experiments:
barnyardgrass = assay: Test E postemergence; assay type: in vivo, Echinochloa crus-galli; details: Echinochloa crus-galli, post-emergence, read-out: Plant response rating, Barnyardgrass
Outline: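 Compound in a non-phytotoxic solvent mixture with surfactant was applied preemergence to seeds in silt loam soil, or postemergence to plants 2 to 18 cm tall grown in peat-based potting medium. Plants were kept in a greenhouse for 14 to 21 days, then rated visually against untreated controls on a 0 (no effect) to 100 (complete control) scale.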

bromegrass, downy [1] = assay: Test D preemergence; assay type: in vivo, Bromus tectorum; details: Bromus tectorum, pre-emergence, scale 0-100, read-out: Plant response rating, Bromegrass, Downy
Outline: (§1)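 Solvent/surfactant formulations are sprayed pre (silt loam) or post (1–4 leaf plants, 2–18 cm). Plants stay 7–21 days in controlled conditions before a visual 0–100 score is given.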

lambsquarters = assay: Test D postemergence; assay type: in vivo, Chenopodium album; details: Chenopodium album, post-emergence, scale 0 to 100 (0 no effect, 100 complete control), read-out: Plant response rating, Lambsquarters
Outline: as §1

chamomile = assay: Test D postemergence; assay type: in vivo, Matricaria inodora; details: Tripleurospermum inodorum, post-emergence, scale 0 to 100 (0 no effect, 100 complete control), read-out: Plant response rating, Chamomile
Outline: as §1

bluegrass [2] = assay: Test D preemergence; assay type: in vivo, Poa annua; details: Poa annua, pre-emergence, scale 0-100, read-out: Plant response rating, Bluegrass
Outline: as §1

wild oat = assay: Test D postemergence; assay type: in vivo, Avena fatua; details: Avena fatua, post-emergence, scale 0 to 100 (0 no effect, 100 complete control), read-out: Plant response rating, Oat, Wild
Outline: as §1

winter barley = assay: Test D postemergence; assay type: in vivo, Hordeum vulgare; details: Hordeum vulgare, post-emergence, Postemergence, scale 0 to 100 (0 no effect, 100 complete control), read-out: Plant response rating, Barley, Winter
Outline: as §1

spring barley = assay: Test D postemergence; assay type: in vivo, Hordeum vulgare; details: Hordeum vulgare, post-emergence, Postemergence, scale 0 to 100 (0 no effect, 100 complete control), read-out: Plant response rating, Barley, Spring
Outline: as §1

blackgrass = assay: Test D preemergence; assay type: in vivo, Alopecurus myosuroides; details: Alopecurus myosuroides, pre-emergence, scale 0-100, read-out: Plant response rating, Blackgrass
Outline: as §1

green foxtail = assay: Test D preemergence; assay type: in vivo, Setaria viridis; details: Setaria viridis, pre-emergence, scale 0-100, read-out: Plant response rating, Foxtail, Green
Outline: as §1

bluegrass [3] = assay: Test D postemergence; assay type: in vivo, Poa annua; details: Poa annua, post-emergence, Postemergence, scale 0 to 100 (0 no effect, 100 complete control), read-out: Plant response rating, Bluegrass
Outline: as §1

canarygrass = assay: Test D preemergence; assay type: in vivo, Phalaris minor; details: Phalaris minor, pre-emergence, scale 0-100, read-out: Plant response rating, Canarygrass
Outline: as §1

bromegrass, downy [4] = assay: Test D postemergence; assay type: in vivo, Bromus tectorum; details: Bromus tectorum, post-emergence, Postemergence, scale 0 to 100 (0 no effect, 100 complete control), read-out: Plant response rating, Bromegrass, Downy
Outline: as §1

What does the source list for `N#Cc1cccc(Oc2ncc(Cl)cn2)c1-n1cc(C(F)(F)F)cn1` [Compound 58, 3-[(5-chloro-2-pyrimidinyl)oxy]-2-[4-(trifluoromethyl)-1H-pyrazol-1-yl]benzonitrile]?
pest or weed control at 31 g/ha (barnyardgrass; Postemergence, 31 g ai/ha, scale 0 to 100): 5%; pest or weed control at 62 g/ha (barnyardgrass; Postemergence, 62 g ai/ha, scale 0 to 100): 20%; pest or weed control at 125 g/ha (barnyardgrass; Postemergence, 125 g ai/ha, scale 0 to 100): 30%; pest or weed control at 250 g/ha (barnyardgrass; Postemergence, 250 g ai/ha, scale 0 to 100): 70%; pest or weed control at 16 g/ha (barnyardgrass; postemergence, 16 g ai/ha, scale 0 to 100, 0 no effect, 100 complete control): 0%; pest or weed control at 31 g/ha (bromegrass, downy [1]; 31 g ai/ha): 10%; pest or weed control at 62 g/ha (bromegrass, downy [1]; 62 g ai/ha): 15%; pest or weed control at 125 g/ha (bromegrass, downy [1]; 125 g ai/ha): 35%; pest or weed control at 250 g/ha (bromegrass, downy [1]; 250 g ai/ha): 75%; pest or weed control at 31 g/ha (lambsquarters; 31 g ai/ha): 75%; pest or weed control at 62 g/ha (lambsquarters; 62 g ai/ha): 90%; pest or weed control at 125 g/ha (lambsquarters; 125 g ai/ha): 95%; pest or weed control at 250 g/ha (lambsquarters; 250 g ai/ha): 90%; pest or weed control at 31 g/ha (chamomile; 31 g ai/ha): 10%; pest or weed control at 62 g/ha (chamomile; 62 g ai/ha): 25%; pest or weed control at 125 g/ha (chamomile; 125 g ai/ha): 35%; pest or weed control at 250 g/ha (chamomile; 250 g ai/ha): 35%; pest or weed control at 31 g/ha (bluegrass [2]; 31 g ai/ha): 10%; pest or weed control at 62 g/ha (bluegrass [2]; 62 g ai/ha): 50%; pest or weed control at 125 g/ha (bluegrass [2]; 125 g ai/ha): 100%; pest or weed control at 250 g/ha (bluegrass [2]; 250 g ai/ha): 100%; pest or weed control at 31 g/ha (wild oat; 31 g ai/ha): 30%; pest or weed control at 62 g/ha (wild oat; 62 g ai/ha): 35%; pest or weed control at 125 g/ha (wild oat; 125 g ai/ha): 35%; pest or weed control at 250 g/ha (wild oat; 250 g ai/ha): 55%; plant injury at 31 g/ha (winter barley; 31 g ai/ha): 10%; plant injury at 62 g/ha (winter barley; 62 g ai/ha): 15%; plant injury at 125 g/ha (winter barley; 125 g ai/ha): 25%; plant injury at 250 g/ha (winter barley; 250 g ai/ha): 50%; plant injury at 31 g/ha (spring barley; 31 g ai/ha): 15%; plant injury at 62 g/ha (spring barley; 62 g ai/ha): 20%; plant injury at 125 g/ha (spring barley; 125 g ai/ha): 30%; plant injury at 250 g/ha (spring barley; 250 g ai/ha): 40%; pest or weed control at 31 g/ha (blackgrass; 31 g ai/ha): 20%; pest or weed control at 62 g/ha (blackgrass; 62 g ai/ha): 55%; pest or weed control at 125 g/ha (blackgrass; 125 g ai/ha): 100%; pest or weed control at 250 g/ha (blackgrass; 250 g ai/ha): 100%; pest or weed control at 31 g/ha (green foxtail; 31 g ai/ha): 100%; pest or weed control at 62 g/ha (green foxtail; 62 g ai/ha): 100%; pest or weed control at 125 g/ha (green foxtail; 125 g ai/ha): 100%; pest or weed control at 250 g/ha (green foxtail; 250 g ai/ha): 100%; pest or weed control at 31 g/ha (bluegrass [3]; 31 g ai/ha): 25%; pest or weed control at 62 g/ha (bluegrass [3]; 62 g ai/ha): 35%; pest or weed control at 125 g/ha (bluegrass [3]; 125 g ai/ha): 45%; pest or weed control at 250 g/ha (bluegrass [3]; 250 g ai/ha): 55%; pest or weed control at 31 g/ha (canarygrass; 31 g ai/ha): 20%; pest or weed control at 62 g/ha (canarygrass; 62 g ai/ha): 55%; pest or weed control at 125 g/ha (canarygrass; 125 g ai/ha): 100%; pest or weed control at 250 g/ha (canarygrass; 250 g ai/ha): 100%; pest or weed control at 31 g/ha (bromegrass, downy [4]; 31 g ai/ha): 25%; pest or weed control at 62 g/ha (bromegrass, downy [4]; 62 g ai/ha): 30%; pest or weed control at 125 g/ha (bromegrass, downy [4]; 125 g ai/ha): 35%; pest or weed control at 250 g/ha (bromegrass, downy [4]; 250 g ai/ha): 35%
